The text below walks through data of patent US8961959B2, “Glucosylceramide synthase inhibitors and therapeutic methods using the same” (The Regents of the University of Michigan, priority 2011, dated 2015).

Data set [1] has as its target T1, glucosylceramide synthase (GCS) (Canis lupus familiaris, UniProt A0A8I3MXG6).
T1 construct: Madin-Darby canine kidney (MDCK) cell homogenates (120 μg of protein) were incubated; endogenous in cells; host or cells: MDCK (Madin-Darby canine kidney) cell homogenate
T1 sequence (A0A8I3MXG6 1-394): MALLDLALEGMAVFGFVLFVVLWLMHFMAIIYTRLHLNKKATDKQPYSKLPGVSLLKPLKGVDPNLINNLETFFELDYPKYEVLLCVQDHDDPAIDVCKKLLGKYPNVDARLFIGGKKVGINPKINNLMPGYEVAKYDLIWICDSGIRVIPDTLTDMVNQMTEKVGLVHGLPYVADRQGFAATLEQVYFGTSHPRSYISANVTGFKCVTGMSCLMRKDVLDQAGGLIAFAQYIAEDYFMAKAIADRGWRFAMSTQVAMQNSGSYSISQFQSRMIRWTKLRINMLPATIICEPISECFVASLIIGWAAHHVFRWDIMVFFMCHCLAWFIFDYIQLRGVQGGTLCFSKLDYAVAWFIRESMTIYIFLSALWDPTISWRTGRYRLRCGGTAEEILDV
Description: GCS activity, broken cell (MDCK cell homogenate) assay. The class given is biochemical, canine. The protocol:
Enzyme activity was measured as described previously (9). Madin-Darby canine kidney (MDCK) cell homogenates (120 μg of protein) were incubated with uridine diphosphate-[^3H]glucose (100,000 cpm) and liposomes consisting of 85 μg of octanoylsphingosine, 570 μg of dioleoylphosphatidylcholine, and 100 μg of sodium sulfatide in a 200 μL reaction mixture and kept for 1 h at 37° C.

Another data set relates to MDR1-MDCKII cells. Description: GCS inhibition (GlcCer production) in MDCKII cells stably expressing human MDR1. The note with it: for IC50: Canis lupus familiaris, inhibition of GlcCer production in MDCKII cells stably expressing human MDR1, 24 h, read-out: MDR-MDCK IC50; for MDR/WT: ratio of MDR1-MDCKII IC50 divided by WT-MDCKII IC50. The data set is classed as cell-based, canine. The protocol:
(§1) Parental (WT-)MDCKII cells and MDCKII cells retrovirally transduced with human MDR-1 cDNA were obtained from the Netherlands Cancer Institute. Both cell lines were routinely maintained in medium consisting of Opti-MEM/F 12 (1:1), 5% FBS, 100 U/mL of penicillin, 100 μg/mL streptomycin and […] L-glutamine. MDCKII cells were newly thawed from frozen ampules every two months.
Stock solutions of water-insoluble glycosphingolipid inhibitors (100 mM) were prepared by dissolving each inhibitor into 100% ethanol as previously described (3). The inhibitor-ethanol solutions then were diluted 50× into 2 mM delipidated bovine serum albumin-phosphate buffered saline solution to make water-soluble glycosphingolipid inhibitor-bovine serum albumin complexes. The inhibitor-bovine serum album complexes were sterile-filtered and stored at −20° C. Prior to use, portions of the inhibitor-bovine serum albumin complexes were further diluted with Opti-F12 to make treatment solutions. Equal amounts of bovine serum albumin and ethanol were added into the control cultures. WT and MDR1-MDCKII cells (5×10^5) were seeded into 10-cm culture dishes containing 10 ml of Opti-F12 with 5% FBS. […]
(§2) Following inhibitor treatment, whole cellular lipids of wild type and MDR1-MDCKII cells were extracted as previously described in detail (10). Briefly, cells were washed with ice-cold phosphate buffered saline, fixed by methanol, and collected with rubber scraper. Chloroform was then added to yield a theoretical ratio of chloroform:methanol:water at 1:2:0.8 (v/v/v) to form a mono-phase. Cell debris and proteins were removed by centrifugation at 2200×g for 30 min. The supernatants were portioned by adding chloroform and 0.9% NaCl. The lower organic phases containing neutral glycosphingolipids lipids were washed with methanol and 0.9% NaCl, and subjected to base- and acid-hydrolysis (10). A portion of purified glycosphingolipids normalized to 100 nmol of total phospholipids was analyzed by high performance thin layer chromatography. The thin layer chromatography separations were processed twice. The plate pretreated with 1% sodium borate was first developed in a solvent system consisting of chloroform/methanol (98/2, v/v). After air drying, the plate was then developed in a solvent system containing chloroform/methanol/water (70/30/4, v/v/v). The levels of glucosylceramide were detected by charring with 8% cupric sulfate in 8% phosphoric acid, and quantified by densitometric scanning using ImageJ, NIH Image.

Another data set deals with WT-MDCKII cells. Description: GCS inhibition (GlcCer production) in whole wild-type MDCKII cells. The class given is cell-based, canine. The note with it: Canis lupus familiaris, MDCK-II; inhibition of GlcCer production in whole wild-type MDCKII cells, 24 h; read-out: WT-MDCK IC50. The protocol: as §1, with “months. Protein levels of MDR1 in MDR1-MDCKII cells were measured monthly, and MDR1-MDCKII cell passages were immediately terminated when a reduction of MDR1 levels was observed by Western blot using anti-human MDR1 monoclonal antibody (Abcam C219).” for “months.”
Stock solutions of water-insoluble glycosphingolipid inhibitors (100 mM) were prepared by dissolving each inhibitor into 100% ethanol as previously described (3). The inhibitor-ethanol solutions then were diluted 50× into 2 mM delipidated bovine serum albumin-phosphate buffered saline solution to make water-soluble glycosphingolipid inhibitor-bovine serum albumin complexes. The inhibitor-bovine serum album complexes were sterile-filtered and stored at −20° C. Prior to use, portions of the inhibitor-bovine serum albumin complexes were further diluted with Opti-F12 to make treatment solutions. Equal amounts of bovine serum albumin and ethanol were added into the control cultures. WT and MDR1-MDCKII cells (5×10^5) were seeded into 10-cm culture dishes containing 10 ml of Opti-F12 with 5% FBS. After 24 hours, the medium was replaced with fresh serum-free Opti-F12 medium, and cells were exposed to candidate GCS inhibitors at concentrations of 0, 1, 3, 10, 30, 100 and 300 nM for 24 hours.
as §2, with “Image. Image data was analyzed, and the IC50 of each inhibitor was calculated using GraphPad Prism (version 5.03).” for “Image.”

The target in another data set is T2, MDR1 (Homo sapiens, UniProt P08183).
T2 construct: host or cells: MDCKII (canine kidney) cells retrovirally transduced with human MDR-1 cDNA
T2 sequence (P08183 whole entry): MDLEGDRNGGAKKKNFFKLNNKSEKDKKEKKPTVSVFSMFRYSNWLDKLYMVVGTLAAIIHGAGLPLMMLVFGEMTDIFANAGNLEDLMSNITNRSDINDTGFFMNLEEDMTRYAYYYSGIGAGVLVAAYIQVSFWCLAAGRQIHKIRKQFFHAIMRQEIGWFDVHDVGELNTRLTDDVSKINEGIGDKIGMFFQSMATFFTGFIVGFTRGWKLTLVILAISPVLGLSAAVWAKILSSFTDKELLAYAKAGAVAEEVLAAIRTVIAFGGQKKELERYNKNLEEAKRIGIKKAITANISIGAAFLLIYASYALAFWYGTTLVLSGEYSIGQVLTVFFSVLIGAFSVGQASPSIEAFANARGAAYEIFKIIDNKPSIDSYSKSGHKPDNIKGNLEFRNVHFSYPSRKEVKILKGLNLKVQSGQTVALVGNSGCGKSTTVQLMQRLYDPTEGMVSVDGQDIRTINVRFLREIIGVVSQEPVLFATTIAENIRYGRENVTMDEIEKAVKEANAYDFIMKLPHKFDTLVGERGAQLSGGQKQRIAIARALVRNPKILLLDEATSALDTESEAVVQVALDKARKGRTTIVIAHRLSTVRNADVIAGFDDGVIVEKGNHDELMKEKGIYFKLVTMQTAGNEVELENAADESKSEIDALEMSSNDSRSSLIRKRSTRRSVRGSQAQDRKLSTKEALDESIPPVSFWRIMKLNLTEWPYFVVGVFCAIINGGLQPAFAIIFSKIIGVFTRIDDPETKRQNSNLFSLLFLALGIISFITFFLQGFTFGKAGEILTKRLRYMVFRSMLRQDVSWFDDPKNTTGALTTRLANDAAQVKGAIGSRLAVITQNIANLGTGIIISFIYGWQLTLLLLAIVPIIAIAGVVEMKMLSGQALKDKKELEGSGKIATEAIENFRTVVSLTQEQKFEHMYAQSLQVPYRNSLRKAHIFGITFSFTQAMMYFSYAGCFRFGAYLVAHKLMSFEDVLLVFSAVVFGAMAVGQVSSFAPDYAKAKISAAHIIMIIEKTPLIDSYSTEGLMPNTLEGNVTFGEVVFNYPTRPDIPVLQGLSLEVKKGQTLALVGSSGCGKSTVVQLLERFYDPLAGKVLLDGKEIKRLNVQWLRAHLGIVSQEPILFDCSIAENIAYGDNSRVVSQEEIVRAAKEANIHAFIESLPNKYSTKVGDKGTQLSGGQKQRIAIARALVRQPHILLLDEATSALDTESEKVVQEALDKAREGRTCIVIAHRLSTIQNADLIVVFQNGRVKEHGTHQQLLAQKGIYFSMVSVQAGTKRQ
Description: [3H]Vinblastine transport in MDR1-MDCKII cells. The class given is cell-based. The note with it: 1-100 μM, 2 h, relative to vehicle. As to the method:
MDR1- and WT-MDCKII cells were grown to confluence on Transwell filters (12 well plates) in DMEM+10% FBS. […] Uptake was measured over 2 hours at 37° C. At that time, uptake was stopped by washing each side of the membrane 3× with ice-cold PBS. Vinblastine uptake into the cells, after correction for any remaining adherent extracellular contamination, was calculated as described previously (11). To investigate the effect of experimental drugs on MDR-mediated transport, those compounds were added to the apical chamber (1-100 μM) during vinblastine uptake and the uptake results expressed as a % of that with vehicle alone.

For data set [2] the following is noted: cited from earlier work.

One may read the IC50 as the point on the concentration scale where inhibition reaches its midpoint. With `O=C(N[C@H](CN1CCCC1)[C@H](O)c1ccc2c(c1)OCCO2)C1CC1c1ccccc1` (stereo partly drawn) [Compound 3g, N-((1R,2R)-1-(2,3-dihydrobenzo[b][1,4]dioxin-6-yl)-1-hydroxy-3-(pyrrolidin-1-yl)propan-2-yl)-2-phenylcyclopropanecarboxamide], the IC50 in data set [1] was 90 nM; with MDR1-MDCKII cells it was 78.1 nM; in the data set with WT-MDCKII cells, 27.3 nM. The MDR/WT in the data set on MDR1-MDCKII cells amounted to 2.9.

Take `O=C(N[C@H](CN1CCCC1)[C@H](O)c1ccc2c(c1)OCCO2)C1Cc2ccccc2C1` [Compound 3i, N-((1R,2R)-1-(2,3-dihydrobenzo[b][1,4]dioxin-6-yl)-1-hydroxy-3-(pyrrolidin-1-yl)propan-2-yl)-2,3-dihydro-1H-indene-2-carboxamide]: the IC50 was 107 nM in data set [1], 3210 nM in the data set on MDR1-MDCKII cells and 151 nM in the data set with WT-MDCKII cells. In the data set with MDR1-MDCKII cells (in words), the “activity in the MDR1-MDCKII line” value was “loss of activity”. For the same compound, the MDR/WT with MDR1-MDCKII cells stood at 21. On MDR1, the “[3H]vinblastine uptake into MDR1-MDCKII cells” value is recorded as “dose dependent increase”.

Turning to `CN(C(=O)CCc1ccccc1)[C@H](CN1CCCC1)[C@H](O)c1ccc2c(c1)OCCO2` [Compound 3j, N-((1R,2R)-1-(2,3-dihydrobenzo[b][1,4]dioxin-6-yl)-1-hydroxy-3-(pyrrolidin-1-yl)propan-2-yl)-N-methyl-3-phenylpropanamide], the IC50 in data set [1] amounted to 158 nM; in the data set on MDR1-MDCKII cells, 1250 nM; with WT-MDCKII cells, 59.4 nM. Further, in the data set with MDR1-MDCKII cells, the MDR/WT is on record as 21.

For the compound `O=C(N[C@H](CN1CCCC1)[C@H](O)c1ccc2c(c1)OCCO2)OCc1ccccc1` [Compound 3b], the IC50 stood at 144 nM in data set [1], 47.1 nM in the data set on MDR1-MDCKII cells and 7.3 nM in the data set on WT-MDCKII cells. Moreover, the MDR/WT in the data set on MDR1-MDCKII cells turned out to be 6.5.

Regarding `O=C(Cc1ccccc1)N[C@H](CN1CCCC1)[C@H](O)c1ccc2c(c1)OCCO2` [Compound 3d, N-((1R,2R)-1-(2,3-dihydrobenzo[b][1,4]dioxin-6-yl)-1-hydroxy-3-(pyrrolidin-1-yl)propan-2-yl)-2-phenylacetamido], the IC50 in data set [1] is above 2000 nM.

As for `O=C(/C=C/c1ccccc1)N[C@H](CN1CCCC1)[C@H](O)c1ccc2c(c1)OCCO2` [Compound 3f, N-((1R,2R)-1-(2,3-dihydrobenzo[b][1,4]dioxin-6-yl)-1-hydroxy-3-(pyrrolidin-1-yl)propan-2-yl)cinnamamide], the IC50 came to 379 nM in data set [1], 389 nM with MDR1-MDCKII cells and 80.7 nM with WT-MDCKII cells. Besides, in the data set with MDR1-MDCKII cells, the MDR/WT came out at 4.8.

Regarding `O=C(CCc1ccccc1)N[C@H](CN1CCCC1)[C@H](O)c1ccc2c(c1)OCCO2` [Compound 3c], the IC50 in data set [1] amounted to 134 nM; with MDR1-MDCKII cells it was 86.7 nM; in the data set on WT-MDCKII cells, 23.5 nM. In the data set with MDR1-MDCKII cells, the MDR/WT was 3.7.

Take `CCCCN1C[C@H](O)[C@@H](O)[C@H](O)[C@H]1CO` [NB-DNJ, N-butyldeoxynojirimycin]: the “effect on mouse body weight” value in data set [2] was “reduce mouse body weight”.

For `O=C(CCCc1ccccc1)N[C@H](CN1CCCC1)[C@H](O)c1ccc2c(c1)OCCO2` [Compound 3e], the IC50 came out at 80 nM in data set [1], 1440 nM with MDR1-MDCKII cells and 254 nM with WT-MDCKII cells. For the same compound, the MDR/WT in the data set with MDR1-MDCKII cells amounted to 5.7.
